Converted amounts (≈) assume the structure as drawn.

The assay relates to Staphylococcus aureus. Description: Antibacterial activity against Staphylococcus aureus ATCC 6538 assessed as inhibition of bacterial growth incubated for 24 hrs by CLSI based microdilution method. It counts as functional. Background: Broth dilution looks for growth in wells or tubes with falling amounts of substance.
As for `C/C(=C\CCC1=C2[C@H](C[C@@]3(C)[C@H]2C[C@@H](O)[C@H]2[C@@]4(C)CC[C@@H](O)[C@@H](CO)[C@@H]4CC[C@@]23C)OC1=O)C(=O)O`, the MIC99.9 is more than 100 µg/mL. Under `CC(=O)O[C@H]1C[C@@]2(C)[C@@H](C[C@@H](O)[C@H]3[C@@]4(C)CC[C@@H](O)[C@@H](C)[C@@H]4CC[C@@]32C)/C1=C(\CC/C=C(\C)CO)C(=O)O` stands 2.5 µg/mL (≈ 4.69 µM).

For `C/C(=C\CCC1=C2[C@H](C[C@@]3(C)[C@H]2C[C@@H](O)[C@H]2[C@@]4(C)CC[C@@H](O)[C@@H](C)[C@@H]4CC[C@@]23C)OC1=O)CO`, the MIC99.9 is more than 100 µg/mL. On to `CC(=O)O[C@H]1C[C@@]2(C)[C@@H](CC(=O)[C@H]3[C@@]4(C)CC[C@@H](O)[C@@H](C)[C@@H]4CC[C@@]32C)/C1=C(\CCC=C(C)C)C(=O)O`, for which the MIC99.9 came out at 0.078 µg/mL (≈ 0.152 µM). The figure for `C/C(=C\CCC1=C2[C@H](C[C@@]3(C)[C@H]2C[C@@H](O)[C@H]2[C@@]4(C)CC[C@@H](O)[C@@H](C)[C@@H]4CC[C@@]23CO)OC1=O)C(=O)O` is more than 100 µg/mL; for `C/C(=C\CCC1=C2[C@H](C[C@@]3(C)[C@H]2C[C@@H](O)[C@H]2[C@@]4(C)CC[C@@H](O)[C@@H](C)[C@@H]4C[C@@H](O)[C@@]23C)OC1=O)C(=O)O` it is more than 100 µg/mL.

(Values after ChEMBL document CHEMBL4831550, “Fusidane-Type Antibiotics from the Marine-Derived Fungus Simplicillium sp. SCSIO 41513” (2021).)
